Assays:
[1] = target: T1, human GLP-1 receptor (Homo sapiens, UniProt P43220); assay: In vitro activity, HEK-293 Aurora CRE-BLAM cells, β-lactamase reporter; assay type: cell-based; settings: comparison with the acid form; test not specified
T1 construct: expressed in transfected cells; host or cells: HEK-293 Aurora CRE-BLAM cells
From the text: The day after seeding, the medium is replaced with plasma free medium.

[2] = Aggregation time in solution, turbidity at 350 nm while stirred; assay type: physicochemical; settings: 37° C.; 0.3 mg/mL in 10 mM citrate, 10 mM phosphate, 150 mM NaCl, pH 7.4 to 7.5, stirred
Protocol: The peptides in solution were stirred at elevated temperature in a suitable buffer while recording turbidity at 350 nm as a function of time. Time to the onset of aggregation was measured to quantify the potential of each GLP-1 molecule to aggregate under these stressed conditions.
In general, the peptides in solution were stirred at elevated temperature in a suitable buffer while recording turbidity at 350 nm as a function of time. Time to the onset of aggregation was measured to quantify the potential of a given GLP molecule to aggregate under these stressed conditions.
The GLP-1 peptides were first dissolved under alkaline conditions (pH 10.5) for 30 minutes to dissolve any pre-aggregated material. The solution was then adjusted to pH 7.4 and filtered. Specifically, 4 mg of a lyophilized GLP-1 peptide was dissolved in 3 mL of 10 mM phosphate/10 mM citrate. The pH was adjusted to 10.0–10.5 and held for 30 minutes. The solution was adjusted with HCl to pH 7.4 and filtered through a suitable filter, for example a Millex® GV syringe filter (Millipore Corporation, Bedford, Mass.). This solution was then diluted to a final sample containing 0.3 mg/mL protein in 10 mM citrate, 10 mM phosphate, 150 mM NaCl, and adjusted to pH 7.4 to 7.5. […] Every five minutes the turbidity of the solution was measured at 350 nm on an AVIV Model 14DS UV-VIS spectrophotometer (Lakewood, N.J.). […]

T1 sequence (P43220 24-463): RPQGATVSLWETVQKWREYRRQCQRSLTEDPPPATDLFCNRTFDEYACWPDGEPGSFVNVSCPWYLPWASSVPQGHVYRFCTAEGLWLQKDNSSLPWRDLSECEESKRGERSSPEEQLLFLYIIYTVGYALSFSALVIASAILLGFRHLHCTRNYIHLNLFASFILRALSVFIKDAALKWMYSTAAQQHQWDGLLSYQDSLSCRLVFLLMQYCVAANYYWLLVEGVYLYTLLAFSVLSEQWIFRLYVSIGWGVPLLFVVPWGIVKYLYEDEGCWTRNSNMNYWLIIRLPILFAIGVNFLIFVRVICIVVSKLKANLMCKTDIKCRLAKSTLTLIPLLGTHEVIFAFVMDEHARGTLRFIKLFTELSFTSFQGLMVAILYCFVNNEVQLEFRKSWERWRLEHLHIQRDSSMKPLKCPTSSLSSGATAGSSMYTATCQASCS

Row | Substance | Potency compared to the acid form Val^8-GLP-1(7–37)OH (in words) [1] | Time to onset of aggregation [2]
1 | Val^8-GLP-1(7–36)NH2 | slightly less potent than the acid form | 
2 | Val^8-GLP-1(7–37)NH2 (HXEGTFTSDVSSYLEXQAAKXFIXWLVKGRX; C-terminal amide) [GLP-1(7–37)OH wherein Ala at position 8 has been substituted with Val and Gly at position 37 has been amidated] |  | approximately 23 hours

— patent US7199217B2, “Amidated glucagon-like peptide-1” (Eli Lilly and Company, priority 2000, dated 2007)
